Data published in article PMC12728616, “Regioselective Glycosylation of Fluorine-18-Labeled Sorbitol for Enhanced Bacterial Detection In Vivo Using PET” (JACS Au, 2025).

How the values were obtained:
[1] = test system: S. aureus; parameters: method as in previously reported S. aureus sensitive PET tracers; details: S. aureus infection; ref previously reported S. aureus sensitive PET tracers; cited from earlier work
[2] = test system: K. pneumoniae; assay: In vitro uptake of 18F-tracers by bacteria; format: cell-based, Klebsiella pneumoniae
Method: (§1) In vitro evaluation of ^18F-tracers was conducted according to our established procedure. Briefly, bacteria were incubated overnight at 37 °C, subcultured into a fresh medium at an initial OD600 of 0.05, and then allowed to reach the mid log phase (OD600 ∼ 0.4). The cultures were subsequently incubated with ^18F-tracers (final concentration: 0.1 MBq/mL) at 37 °C for 90 min. Subsequently, 300 μL aliquots of these cultures were centrifuged at 13,200 rpm for 6 min. The resulting pellets were washed with 300 μL of phosphate-buffered saline (PBS). The radioactivity of the pellets and supernatants was measured using a gamma counter. Uptake values were normalized to colony-forming units (CFUs).

[3] = test system: Gram-positive bacteria; assay: In vitro uptake of 18F-tracers across the Gram-positive panel; format: cell-based; details: panel of Gram-positive pathogens; FLT/FCT except E. faecalis; FMT versus FNT
Method: as §1

[4] = in vivo; cited from earlier work
[5] = test system: Enterococcus faecalis; assay: In vitro uptake of 18F-tracers by bacteria; format: cell-based; details: E. faecalis; 37 °C, 90 min
Method: as §1

[6] = Dynamic PET/CT and ex vivo biodistribution in uninfected mice; details: uninfected mice
Method: To assess the effect of [^18F]-FDS glycosylation on tissue uptake in vivo, we performed dynamic PET/CT scans for 90 min after the intravenous injection of [^18F]-FNT, [^18F]-FMT, and [^18F]-FDS in uninfected mice, followed by ex vivo analysis.
(§2) μPET/CT imaging was conducted using a nanoScan μPET/CT instrument (PET123S/CT1512, Mediso). Mice were anesthetized with 2% isoflurane/oxygen for intravenous administration of ^18F-tracers (∼5 MBq in 150 μL) via tail vein and maintained during data acquisition. PET data of uninfected mice were acquired in the list mode for 90 min, starting immediately after ^18F-tracer administration, followed by a CT scan. The PET data were reconstructed into three-dimensional volumes and coregistered with CT images using manufacturer-provided software in 53 dynamic frames (15 × 2 s, 6 × 5 s, 6 × 10 s, 4 × 30 s, 6 × 30 s, and 16 × 300 s). PET data of infected mice were acquired for 20 min, starting at 70 min postinjection of ^18F-tracer (mid time 80 min), followed by a CT scan. The list mode PET data were reconstructed into three-dimensional volumes in a single static frame. All PET scans were corrected for ^18F decay, dead time, and random coincidences and reconstructed into a 160 × 160 × 184 matrix with voxel size 0.8 mm using a three-dimensional ordered subject expectation maximization (OSEM) algorithm (40 iterations, 1 subset). Both attenuation and scatter corrections were applied to PET reconstructions using the coregistered CT. ROIs were drawn manually around the brain, lungs, liver, kidney, and urinary bladder using Amide software to generate image-derived TACs. For the estimation of blood pool radioactivity over time, ROIs were drawn on the left atrium. To estimate the plasma half-life of tracers, the TAC of the blood pool was fitted to a two-compartment model using a biexponential decay function: C t(t) = Ae ^–αt + Be ^ ‑βt , where C t(t) is the tracer concentration (% IDcc^–1) at time (t), A and B are the intercepts, and α and β are the distribution and elimination rate constants, respectively. , Quantitative uptake values are expressed as % IDcc^–1, representing the percent of the total injected dose per cubic centimeter. For the S. aureus myositis model, identical volume ROIs were drawn corresponding to the peak uptake of [^18F]-FNT at the live S. aureus inoculated site and heat-killed S. aureus inoculated site, respectively.

[7] = test system: K. pneumoniae; assay: PET/CT in K. pneumoniae pneumonia murine model; format: in vivo, mice
Method: Given promising low background signals in uninfected mice, we further evaluated [^18F]-FNT and [^18F]-FMT in two different clinically relevant mouse models of lung and muscle infections. […] PET scanning was performed at 24 h postintranasal bacterial installation (Figure A). […] The ROI-derived infected/uninfected lung ratios of [^18F]-FDS, [^18F]-FMT, and [^18F]-FNT were approximately 3.2, 6.1, and 5.9-fold, respectively (Figure C), also supported by the ex vivo infected/uninfected lung ratio of [^18F]-FDS (∼1.6-fold), [^18F]-FMT (∼5.7-fold), and [^18F]-FNT (∼5.7-fold) (Figure D). Post-PET scans, infected lungs were harvested to determine colony forming units (CFUs). No significant differences in bacterial counts were observed among [^18F]-FDS, [^18F]-FMT, and [^18F]-FNT (Figure E). To confirm radiotracer specificity, we also evaluated mice inoculated with 10x heat-killed K. pneumoniae into lungs (Supporting Information Figure S5A–C).
(§3) All animal procedures were conducted in accordance with UCSF institutional guidelines and were approved by the Institutional Animal Care and Use Committee (IACUC). Female CBA/J mice (9 and 11 weeks old) were used for the study. Pulmonary infection and bacterial myositis models were established based on previously published protocols. , For pulmonary infection, 50 μL of K. pneumoniae (5 × 10^6 CFU) or 10× heat-killed K. pneumoniae were administered intranasally under anesthesia 24 h prior to imaging using PET. After PET scans, infected lungs were homogenized in PBS and plated on LB agar. Plates were incubated overnight at 37 °C to quantify the bacterial burden. For the bacterial myositis model, mice were intramuscularly injected with either 1 × 10^6 CFUs of live S. aureus (MSSA or MRSA) or 1 × 10^7 CFUs of heat-killed bacteria (50 μL) into the left and right deltoid muscles, respectively, 10 h prior to imaging using PET. Immediately following all imaging studies, target tissues were harvested, and radioactivity was measured using a gamma counter.
as §2, with “For the S. aureus myositis model, identical volume ROIs were drawn corresponding to the peak uptake of [^18F]-FNT at the live S. aureus inoculated site and heat-killed S. aureus inoculated site, respectively.” left out

[8] = test system: MRSA; assay: PET/CT in MRSA myositis murine model; format: in vivo, mice; details: MRSA myositis
Method: We next compared [^18F]-FNT and [^18F]-FMT PET in a S. aureus myositis model. […] To compare the in vivo detection sensitivity of [^18F]-FNT and [^18F]-FMT in a MRSA myositis model, we injected the left deltoid with live MRSA and the right deltoid with 10x heat-killed MRSA, respectively (Figure B).
as §3, with “For the bacterial myositis model, mice were intramuscularly injected with either 1 × 10^6 CFUs of live S. aureus (MSSA or MRSA) or 1 × 10^7 CFUs of heat-killed bacteria (50 μL) into the left and right deltoid muscles, respectively, 10 h prior to imaging using PET.” left out
as §2

[9] = blood pool TAC, two-compartment fit

Nc1ccc(C(=O)O)c([18F])c1 [2-[18F]F-PABA]
target-to-nontarget ratio [1]: ~8 fold

[11CH3][C@@H](N)C(=O)O [D-[3-11C]Ala]
target-to-nontarget ratio [1]: ~4 fold

N[C@H](CC[11C](N)=O)C(=O)O [D-[5-11C]-Gln]
target-to-nontarget ratio [1]: ~2.3 fold

[11CH3]SCC[C@@H](N)C(=O)O [D-[11C]Met]
target-to-nontarget ratio [1]: ~10 fold

[2H]C([2H])([18F])[C@@]([2H])(N)C(=O)O [D-[18F]FAla-d3]
target-to-nontarget ratio [1]: ~2.4 fold

N[C@H](C[18F])C(=O)O [D-[18F]FAla]
target-to-nontarget ratio [1]: ~2 fold

Nc1ccc([11C](=O)O)cc1 [[11C]PABA]
target-to-nontarget ratio [1]: ~28 fold

OC[C@@H](O)[C@@H](O[C@@H]1O[C@H](CO)[C@@H](O)[C@H](O)[C@H]1O)[C@H](O)[C@@H]([18F])CO [[18F]FCT, 2-deoxy-2-[18F]fluoro-D-cellobiotol]
in vitro uptake [2]: poorly taken up | in vitro uptake in Gram-positive bacteria [3]: negligible uptake

OC[C@H]1OC(O)[C@H]([18F])[C@@H](O)[C@@H]1O (stereo partly drawn) [[18F]FDG]
known effective dose [4]: 0.017 mSv/MBq

OCC1OC(OC2C(CO)OC(O)C([18F])C2O)C(O)C(O)C1O (stereo not drawn) [[18F]FDM]
target-to-nontarget ratio [1]: ~6 fold

OC[C@@H](O)[C@@H](O)[C@H](O)[C@@H]([18F])CO [[18F]FDS, 2-deoxy-2-[18F]fluoro-D-sorbitol, reference compound]
in vitro uptake [5]: accumulated | in vitro uptake in Gram-positive bacteria [3]: not taken up | area under the curve (AUC0→90min) in bladder ([6]; i.v.): 36165.8 ± 3961.5 % IDcc^–1·min | area under the curve (AUC0→90min) in liver ([6]; i.v.): 289.4 ± 21.3 % IDcc^–1·min | peak uptake (Cmax) in bladder ([6]; i.v., dynamic PET 90 min): 525.5 ± 37.0 % IDcc^–1 | peak uptake (Cmax) in kidneys ([6]; i.v., dynamic PET 90 min): 71.3 ± 9.7 % IDcc^–1 | peak uptake (Cmax) in liver ([6]; i.v., dynamic PET 90 min): 28.6 ± 5.0 % IDcc^–1 | elimination half-life (T1/2β) [6, 9]: 18.74 min | plasma distribution half-life (T1/2α) [6, 9]: 0.43 min | ex vivo infected/uninfected lung ratio ([7]; ex vivo gamma counting after PET): ~1.6 fold | ROI-derived infected/uninfected lung ratio ([7]; in vivo PET, 80 min postinjection (mid time), 24 h after intranasal K. pneumoniae): approximately 3.2 fold

OC[C@@H](O)[C@@H](O)[C@H](O)[C@H]([18F])CO [[18F]FMtl]
target-to-nontarget ratio [1]: ~4 fold

OCC1OC(OC2C(O)C(CO)OC(O)C2[18F])C(O)C(O)C1O (stereo not drawn) [[18F]FSK, reference compound]
ratio of live/heat-killed S. aureus inoculated sites, in vivo ([8]; PET 80 min postinjection (mid time)): 28 fold | ratio of live/heat-killed S. aureus inoculated sites, ex vivo ([8]; ex vivo analysis): 17 fold | target-to-nontarget ratio [1]: ~7 fold

OCCOCc1ccc(-c2noc(-c3ccc(OCC[18F])c(C(F)(F)F)c3)n2)cc1 [[18F]TZ4877]
target-to-nontarget ratio [1]: ~1.3 fold
